# Patent US6838084B1, “Cytotoxic T-cell epitopes of the papilloma virus l1-protein and use thereof in diagnosis and therapy” (priority 1999, dated 2005)
# Key:
# CVLP-stimulated T cells = test: Restimulation of CVLP-stimulated T cells with peptide pools, HLA A24-positive donor; format: cell-based, human; conditions: common to pools A and 2
# Experimental: The name of the particular peptide pool with which the BLCLs were loaded is listed from left to right. “None” represents BLCLs which were incubated only with buffer.
# The 20 mer peptides 1 to 51 were combined in peptide pools A to H and 1 to 7 according to the matrix
# The T cells of an HLA A1-positive donor were then restimulated in 100 μl of medium at 37° C. with the peptide pools in the presence of 10 IU/ml IL2. In this connection, such amounts of peptide pools were used that for each individual peptide 1 μg/ml was added. Cells incubated only with buffer served as a negative control.
# After one hour, 1 μl of Golgi Plug was added. The cells were incubated at 37° C. for a further 5 hours. The cells were then fixed and permeabilized, and stained with α-hum CD8/PE, with α-hum CD4/Cychrome and with α-hum γ-interferon/FITC. The cells were examined in a FACScan calibur with respect to their label and the data were analyzed with the aid of Cellquest software.
# Furthermore, the T cells of an HLA A24-positive donor were restimulated with the peptide pools as above and analyzed.
# [1] = test system: BLCL cells of an HLA A24-positive donor; test: Lysis of BLCL cells loaded with peptide 9 (51Cr release); format: cell-based, human
# Experimental: The target cells were lysed by T cells stimulated with peptides 1-43 (=effector cells) . […] The % values were calculated according to the formula given in Example 7.
# BLCL cells of an HLA A24-positive donor were incubated with […] at 37° C. for one hour, washed three times with medium and divided into 2 aliquots. 10 μg/ml of peptide 9 were added to one aliquot of the cells, and the other aliquot served as a negative control in the absence of a peptide. Subsequently, in each case 2000 cells (=target cells). were added to increasing amounts of T cells (=effector cells) in a total volume of 150 μl. The T cells had been stimulated previously over 5 weeks with a mixture of 43 peptides (peptides 1-43, 1 μg/ml each). Reaction mixtures for spontaneous and maximum cell lysis were set up in parallel. For spontaneous lysis, target cells which were incubated in medium were used, and for maximum lysis target cells which were incubated with 0.5% Triton were used. The mixtures were incubated at 37° C. for 5 h. 50 μl of mixture supernatant were applied to Luma plates and dried at room temperature overnight. On the following morning, the amount of radioactive ^51Cr was determined with the aid of a Canberra-Packerd B-plate counter (counts) and compared to the maximal lysed cells of the Triton mixture. The percentage of specific lysis was determined according to the formula: x=100·(counts−spontaneous counts)/(maximal counts−spontaneous counts).
sequence,measurement,setting,value
SFYNPDTQRLVWACVGVEVG [Peptide 9],"peptide responsible for restimulation, deduced from pool matrix",CVLP-stimulated T cells,in all probability responsible for restimulation of CVLP-stimulated T cells
same,lysis of peptide-loaded BLCL target cells by T cells (51Cr release),"[1]; 10 μg/ml peptide, effector T cells stimulated 5 weeks with peptides 1-43, 5 h, FIG. 8",lyse BLCL cells loaded with peptide 9 effectively
same,Epitop-Information (HLA restriction),[1]; Table 2,HLA A24 restr.
same,Epitop-Information (epitope type),[1]; Table 2,cytotoxic epitope
same,epitope classification,[1]; conclusion from FIG. 8,HLA A24-restricted cytotoxic T-cell epitope
